Patent US9677109B2, “Rapid determination of microbial growth and antimicrobial susceptibility” (priority 2013, dated 2017)

Legend:
E. coli [1] = experiment: 2-NBDG uptake fluorescence labeling; format: cell-based; settings: overnight refrigerator stock, approximately 1 min, 1 μM 2-NBDG
Text: (§1) 2-NBDG (Molecular Probes) is a fluorescent derivative (green channel) of D-glucose that is internalized by active bacteria.

H. influenzae = experiment: 2-NBDG uptake fluorescence labeling; format: cell-based; settings: overnight refrigerator culture, viability verified
Text: as §1

K. pneumoniae = experiment: 2-NBDG uptake fluorescence labeling; format: cell-based; settings: overnight refrigerator stock, approximately 1 min, 1 μM 2-NBDG
Text: as §1

S. aureus = experiment: 2-NBDG uptake fluorescence labeling; format: cell-based; settings: overnight refrigerator culture, viability verified
Text: as §1

[2] = system: Staphylococcus aureus (STAU); experiment: MADM resistance phenotype test, respiratory specimens; format: cell-based
Experimental: (§2) (ABCC). Concurrent quantitative culture (qCx) was performed on specimens.
(§3) 20 μL samples of prepared specimen were pipetted into independent flowcell channels and a low-voltage electrical field was applied for 5 minutes. The electrical field concentrated bacteria onto a functional surface coating that immobilized the bacteria on the lower flowcell surface. Each flowcell channel received only one type of test reagent solution that contained a selective agent if required (only for channels used to test AB, sulbactam 32 μg/mL).
(§4) The instrument acquired images at 10-minutes intervals for 180 minutes, using 10 fields of view in each flowcell channel through a 20× objective. Imaging used darkfield illumination. Identification variables included response to selective agents (AB with sulbactam), cell morphology, growth morphology, and growth rate.
(§5) Identification algorithms applied to each individual immobilized bacterial cell. The system measured the amount of change in mass over time to compute growth rates. Identification consisted of computing and combining probability scores for morphology, response to selective media, and growth rates to produce a receiver operating characteristic curve (ROC) to derive classification criteria.

[3] = system: Staphylococcus aureus (STAU); experiment: Culture (Cx) susceptibility result, respiratory specimens; format: cell-based; note: key: S: susceptible; R: resistant
Experimental: (§6) DHMC specimens were 7-21 days old. […] Controls used standard culturing methods (Cx).
as §2

E. coli [4] = experiment: DiBAC4(3) membrane potential staining; format: cell-based; settings: heat-killed E. coli, 10 g/ml DiBAC4(3), 15 min at room temp
Experimental: DiBAC4(3) (Molecular Probes) is an anionic dye that enters depolarized cells (i.e., cells lacking a membrane potential) and fluoresces in the […] channel when it binds to intracellular proteins or membranes. Using this indicator, 18.5% of an overnight refrigerator stock (control) and 95% of heat-killed E. coli stained with 10 µg/ml DiBAC4(3) after a 15 min incubation period at room temp.

Enteric = experiment: MADM (BACcel) growth analysis sensitivity, surveillance mini-BAL; format: cell-based; settings: specimen 005-D7, BACcel ID Enteric, 1.26 × 10^5 CFU/ml
Experimental: (§7) Adult MICU patients with identified surrogate were included within 72 hours of intubation and if anticipated to require MV for >48 h. Moribund state or pregnancy were exclusions. Surveillance mini-BAL (Combicath, Plastimed) was performed on Day 1, 3, 5, 7 and 10 of MV. Samples were split and processed for both a) routine respiratory quantitative microbiological culture and sensitivity assays (>48 h result availability) and b) rapid (<8 h) flowcell/surface-capture assays using the MADM system. Viable microorganisms were identified using growth analysis enhanced by a focused VAP antibody panel (S. aureus, P. aeruginosa, A. baumannii). Untypable organisms were also reported. Sensitivity was assessed using growth analysis. Attending physicians were blinded to MADM system results.
(§8) BAL sample were prepared, removing debris and separating microorganisms from other sample material. Sample microorganisms were introduced into a multichannel fluidic cassette as described elsewhere herein. Bacteria were concentrated and retained on the lower surface of all flowcells using low-voltage electrical field (5 min). Antibody labeling of bacteria in flowcells was used to aid identification.
(§9) The automated digital microscopy system was used to perform darkfield imaging of 10 fields of view every 10 minutes for 180 minutes in each flowcell channel. Initial epifluorescence imaging was also performed for antibody detection. […] Identification consisted of probability scores based on microorganism morphology and growth rates. Antibody labeling identification data was also incorporated. Observed microorganisms were then classified as STAU, PSAE, or non-target. Antibiotic responses were used to aid identification when appropriate. Quantitation was performed by counting identified microorganism and computing original specimen CFU/mL.

S. maltophilia (Steno) = experiment: as above; format: cell-based
Experimental: as §7, §8, §9

[5] = system: Pseudomonas aeruginosa (PSAE); experiment: MADM resistance phenotype test, respiratory specimens; format: cell-based; settings: for MADM resistance phenotype: PSAE
Experimental: as §2, §3, §4, §5

[6] = system: Acinetobacter spp. (ABCC); experiment: as above; format: cell-based, Acinetobacter sp.
[7] = system: Pseudomonas aeruginosa (PSAE); experiment: Culture (Cx) susceptibility result, respiratory specimens; format: cell-based
Experimental: as §6, §2

damaged membranes = experiment: Propidium iodide membrane integrity staining; format: cell-based; settings: compared with YO-PRO-1
Text: Propidium iodide (PI; Sigma) is another red fluorescent DNA-intercalcater that penetrates damaged membranes but not intact membranes.

E. coli [8] = experiment: Plasmolysis (cell size response to osmotic pressure); format: cell-based; settings: exposed to 0.9% NaCl
Text: Plasmolysis is a method of detecting membrane integrity by exposing cells to a very hypertonic solution, such as may be performed by subjecting a cell to osmotic pressure by manipulating the concentration of a solute, for example, sodium chloride.

[9] = system: heat-killed cells and isopropyl alcohol killed cells; experiment: CFDA/CFDA-SE esterase fluorescence in killed cells; format: cell-based; settings: two hour post-heat-kill delay
Text: Carboxyfluorescein diacetate/carboxyfluorescein diacetate succinimidyl ester (CFDA/CFDA-SE; Molecular Probes) compounds are converted into amine-reactive fluorescent molecules when cleaved by esterases present within active cells. When CFDA-SE is taken up by live cells, the fluorescent molecule produced by esterase cleavage and amine reaction is retained inside the cell. […] The product formed by uptake and processing of CFDA, on the other hand, should be more “leaky” over time and may exit a dead cell. […] Shorter delay times have not yet been investigated but may be compatible with avoiding false positive results while providing a shorter assay period.

[10] = system: Klebsiella pneumoniae (KP); experiment: MADM ertapenem nonsusceptibility / KPC assay; format: cell-based
Experimental: We adapted a commercial inverted microscope and camera with custom image analysis software and a purpose-built 32-channel disposable fluidic cassette (FIG. 4A). Cassette flowcells (FIG. 4B) had transparent top and bottom surfaces to allow microscope imaging. The bottom surface was coated with poly-L-lysine to immobilize live bacteria.
We grew isolates on blood agar, suspended colonies in tryptic soy broth for 2 hours, then centrifuged and resuspended log-phase bacteria in low ionic strength electrokinetic buffer.
MADM system analysis was performed using a 32-channel disposable fluidic cassette (FIG. 4A) to measure growth of immobilized bacteria. We separately tested PA clinical isolates for nonsusceptibility (NS) with amikacin (AN) at 32 μg/mL, and AB isolates with imipenem (IMP) at 8 μg/mL or ceftazidime (CAZ) at 8 μg/mL.
10 μL aliquots of 5E+7 CFU/mL were pipetted into separate flowcells for each isolate and test condition. Microorganisms were electrokinetically concentrated onto the flowcell detection surface with an electrical field to the positively charged lower surface to immobilize cells and yield 10-100 bacteria per field of view (FIG. 4B). […] The system measured growth at 10-minute intervals. […] Growth was evaluated, interpreting results for PA, AB, and KP-ETP as NS if growth had not arrested within 3 hours. […]

[11] = specimen 006-D1, BACcel ID Steno, 7.68 × 10^5 CFU/ml
[12] = specimen 006-D3, BACcel ID Steno, 1.60 × 10^4 CFU/ml

O=[N+]([O-])c1ccc(N[C@H]2C(O)O[C@H](CO)[C@@H](O)[C@@H]2O)c2nonc12 (stereo partly shown) [2-NBDG]
fluorescent labeling (E. coli [1]): fluorescently labeled | fluorescent labeling (H. influenzae): did not fluoresce | fluorescent labeling (K. pneumoniae): fluorescently labeled | fluorescent labeling (S. aureus): did not fluoresce

CCC[C@@H]1C[C@@H](C(=O)N[C@@H]([C@H]2O[C@H](SC)[C@H](O)[C@@H](O)[C@H]2O)[C@H](C)Cl)N(C)C1 [CLI, clindamycin]
MADM resistance phenotype ([2]; specimen DH 425, Mini-BAL): S | MADM resistance phenotype ([2]; specimen DH 427, Mini-BAL): S | MADM resistance phenotype ([2]; specimen DH 439, Mini-BAL): S | MADM resistance phenotype ([2]; specimen DH 440, BAL): S | MADM resistance phenotype ([2]; specimen DH 457, BAL): S | MADM resistance phenotype ([2]; specimen DH 485, BAL): S | MADM resistance phenotype ([2]; specimen DH 509, BAL): S | MADM resistance phenotype ([2]; specimen DH 514, Mini-BAL): S | MADM resistance phenotype ([2]; specimen DH 543, BAL): S | MADM resistance phenotype ([2]; specimen DH 550, BAL): S | MADM resistance phenotype ([2]; specimen DH 556, Mini-BAL): S | MADM resistance phenotype ([2]; specimen T12, ETA): S | Cx (culture result) susceptibility ([3]; specimen DH 425, Mini-BAL): S | Cx (culture result) susceptibility ([3]; specimen DH 427, Mini-BAL): S | Cx (culture result) susceptibility ([3]; specimen DH 439, Mini-BAL): S | Cx (culture result) susceptibility ([3]; specimen DH 440, BAL): S | Cx (culture result) susceptibility ([3]; specimen DH 457, BAL): S | Cx (culture result) susceptibility ([3]; specimen DH 485, BAL): S | Cx (culture result) susceptibility ([3]; specimen DH 509, BAL): S | Cx (culture result) susceptibility ([3]; specimen DH 514, Mini-BAL): S | Cx (culture result) susceptibility ([3]; specimen DH 543, BAL): S | Cx (culture result) susceptibility ([3]; specimen DH 550, BAL): S | Cx (culture result) susceptibility ([3]; specimen DH 556, Mini-BAL): S | Cx (culture result) susceptibility ([3]; specimen T12, ETA): S

CCCCN1C(=O)C(=CC=Cc2c(O)n(CCCC)c(=O)n(CCCC)c2=O)C(=O)N(CCCC)C1=O [DiBAC4(3)]
cells stained (E. coli [4]): 95%

CC(C)(O/N=C(\C(=O)N[C@@H]1C(=O)N2C(C(=O)[O-])=C(C[n+]3ccccc3)CS[C@H]12)c1csc(N)n1)C(=O)O [CAZ, ceftazidime]
Phenotype, sensitivity (Enteric): all growth | Phenotype, sensitivity (S. maltophilia (Steno); [11]): growth, TZP- | Phenotype, sensitivity (S. maltophilia (Steno); [12]): growth, TZP-

Cc1onc(-c2ccccc2)c1C(=O)N[C@@H]1C(=O)N2[C@@H]1SC(C)(C)[C@@H]2C(=O)O [OXA, oxacillin]
Cx (culture result) susceptibility ([3]; specimen DH 425, Mini-BAL): S | Cx (culture result) susceptibility ([3]; specimen DH 427, Mini-BAL): S | Cx (culture result) susceptibility ([3]; specimen DH 439, Mini-BAL): R | Cx (culture result) susceptibility ([3]; specimen DH 440, BAL): S | Cx (culture result) susceptibility ([3]; specimen DH 457, BAL): S | Cx (culture result) susceptibility ([3]; specimen DH 485, BAL): S | Cx (culture result) susceptibility ([3]; specimen DH 509, BAL): S | Cx (culture result) susceptibility ([3]; specimen DH 514, Mini-BAL): S | Cx (culture result) susceptibility ([3]; specimen DH 543, BAL): S | Cx (culture result) susceptibility ([3]; specimen DH 550, BAL): S | Cx (culture result) susceptibility ([3]; specimen DH 556, Mini-BAL): S | Cx (culture result) susceptibility ([3]; specimen T12, ETA): R

NCC[C@H](O)C(=O)N[C@@H]1C[C@H](N)[C@@H](O[C@H]2O[C@H](CN)[C@@H](O)[C@H](O)[C@H]2O)[C@H](O)[C@H]1O[C@H]1O[C@H](CO)[C@@H](O)[C@H](N)[C@H]1O [AN, amikacin]
susceptibility ([5]; all PSAE-containing specimens): susceptible | MADM resistance phenotype ([5]; specimen DH 430, Mini-BAL): S | MADM resistance phenotype ([5]; specimen DH 554, BAL): S | MADM resistance phenotype ([5]; specimen DH 641, Mini-BAL): S | MADM resistance phenotype ([6]; ABCC specimen (specimen id not given)): S | susceptibility ([6]; all ABCC-containing specimens): susceptible | Cx (culture result) susceptibility ([7]; specimen DH 430, Mini-BAL): S | Cx (culture result) susceptibility ([7]; specimen DH 554, BAL): S | Cx (culture result) susceptibility ([7]; specimen DH 641, Mini-BAL): S | Phenotype, sensitivity (S. maltophilia (Steno); [11]): growth, TZP- | Phenotype, sensitivity (S. maltophilia (Steno); [12]): growth, TZP-

CC[N+](C)(CC)CCC[n+]1c(-c2ccccc2)c2cc(N)ccc2c2ccc(N)cc21.[I-].[I-] [PI, Propidium iodide]
fluorescent signal intensity vs. background (damaged membranes): not as high as for YO-PRO-1

[Cl-].[Na+] [NaCl, sodium chloride]
cells that did not exhibit a response (E. coli [8]; heat killed cells): 90% | cells decreasing in size (E. coli [8]; overnight refrigerator stock cultures): 77%

carboxyfluorescein diacetate succinimidyl ester [CFDA-SE]
fluorescence [9]: no fluorescence was observed

C[C@@H](O)[C@H]1C(=O)N2C(C(=O)O)=C(S[C@@H]3CN[C@H](C(=O)Nc4cccc(C(=O)O)c4)C3)[C@H](C)[C@H]12 [ETP, ertapenem]
growth of susceptible strains ([10]; ETP at 16 μg/mL, FIG. 20): fail to grow | growth morphology ([10]; ETP exposure, KPC clinical isolate, FIG. 19): abnormal growth morphology
